Measurements reported in patent publication US20170240513A1, “SUBSTITUTED PYRIMIDINES AS INHIBITORS OF HIF PROLYL HYDROXYLASE” (MERCK SHARP & DOHME CORP., priority 2014, published 2017).

Molecular target: T1, human HIF-PHD2 (Homo sapiens, UniProt Q9GZT9)
T1 construct: FLAG-tagged full length PHD2 expressed in and purified from baculovirus-infected Sf9 cells; FLAG; made in house; host or cells: baculovirus-infected Sf9 cells
Assay: HIF-PHD2 inhibition of HIF-1α peptide hydroxylation (time resolved fluorescence)
Type: biochemical
Conditions: FLAG-tagged full length PHD2; 0.2 μM 2-oxoglutarate, 0.5 μM HIF-1α peptide
Method: Select examples of assays that may be used to detect favorable activity are disclosed in the following publications: Oehme, F., et al., Anal. Biochem. 330:74-80 (2004); Hirsilä, M, et al., J. Bio. Chem. 278 (33): 30772-30780 (2005); Hyunju, C., et al., Biochem. Biophys. Res. Comm. 330 275-280 (2005); and Hewitson, K. S., et al., Methods in Enzymology, (Oxygen Biology and Hypoxia); Elsevier Publisher (2007), pg. 25-42 (ISSN: 0076-6879).
To each well of a 384-well plate, 1 μL of test compounds in DMSO (final concentration ranging from 0.3 nM to 10 uM) were added into 20 μl of assay buffer (50 mM Tris pH 7.4/0.01% Tween-20/0.1 mg/ml bovine serum albumin/[…]/1 mM sodium ascorbate/20 μg/ml catalase) containing 0.15 μg/ml FLAG-tagged full length PHD2 expressed in and purified from baculovirus-infected Sf9 cells. After a 5 min preincubation at room temperature, the enzymatic reactions were initiated by the addition of 4 μL of substrates {final concentrations of 0.2 μM 2-oxoglutarate and 0.5 μM HIF-1α peptide biotinyl-DLDLEMLAPYIPMDDDFQL (SEQ ID NO: 1)}. After incubation for 45 minutes at room temperature, the reactions were terminated by the addition of a 25 μL quench/detection mix to a final concentration of 1 mM ortho-phenanthroline, 0.1 mM EDTA, 0.5 nM anti-(His)6 LANCE reagent (Perkin-Elmer Life Sciences), 100 nM AF647-labeled streptavidin (Invitrogen), and 2 μg/ml (His)6-VHL complex {S. Tan Protein Expr. Purif. 21, 224-234 (2001)} and the signals were developed for 30 minutes at room temperature. The ratio of time resolved fluorescence signals at 665 and 620 nm was determined, and percent inhibition was calculated relative to the high control samples (DMSO treated) run in parallel, after background subtraction.

T1 sequence (Q9GZT9 whole entry): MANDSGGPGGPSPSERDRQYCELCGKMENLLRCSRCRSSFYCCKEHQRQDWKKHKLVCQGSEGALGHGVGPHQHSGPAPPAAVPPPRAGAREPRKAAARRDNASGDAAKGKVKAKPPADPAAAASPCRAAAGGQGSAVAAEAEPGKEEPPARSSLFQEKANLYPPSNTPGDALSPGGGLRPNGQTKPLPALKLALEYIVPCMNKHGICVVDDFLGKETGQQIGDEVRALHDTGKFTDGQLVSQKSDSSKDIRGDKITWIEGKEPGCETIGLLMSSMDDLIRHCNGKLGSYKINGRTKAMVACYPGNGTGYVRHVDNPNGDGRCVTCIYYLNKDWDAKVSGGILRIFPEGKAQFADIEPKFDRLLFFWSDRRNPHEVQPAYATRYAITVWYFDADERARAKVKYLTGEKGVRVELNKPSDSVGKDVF

Compound	IC50 [nM]
CC(C)OC(=O)COC(=O)C(C)CNC(=O)c1ncc(C(=O)NC(c2ccccc2)c2ccccc2)c(O)n1 (single isomer, unassigned) [Ex. 30, 2-Isopropoxy-2-oxoethyl 3-(5-(benzhydrylcarbamoyl)-4-hydroxypyrimidine-2-carboxamido)-2-methylpropanoate]	179
CCOC(=O)C(C)(O)CNC(=O)c1ncc(C(=O)NC(c2ccccc2)c2ccccc2)c(O)n1 (single isomer, unassigned) [Example 26, Ethyl 3-(5-(benzhydrylcarbamoyl)-4-hydroxypyrimidine-2-carboxamido)-2-hydroxy-2-methylpropanoate]	940
CCOC(=O)C(C)(O)CNC(=O)c1ncc(C(=O)NC(c2ccccc2)c2ccccc2)c(O)n1 (single isomer, unassigned) [Example 27, Ethyl 3-(5-(benzhydrylcarbamoyl)-4-hydroxypyrimidine-2-carboxamido)-2-hydroxy-2-methylpropanoate]	879
COC(=O)CCNC(=O)c1ncc(C(=O)NC(c2ccccc2)c2ccccc2)c(O)n1 [Ex. 1, Methyl 3-(5-(benzhydrylcarbamoyl)-4-hydroxypyrimidine-2-carboxamido)propanoate]	14.3
O=C(CCNC(=O)c1ncc(C(=O)NC(c2ccccc2)c2ccccc2)c(O)n1)OCCN1CCOCC1 [Ex. 2, 2-morpholinoethyl 3-(5-(benzhydrylcarbamoyl)-4-hydroxypyrimidine-2-carboxamido)propanoate]	24.9
CCOC(=O)C1(CNC(=O)c2ncc(C(=O)NC(c3ccccc3)c3ccccc3)c(O)n2)CC1 [Ex. 3, ethyl 1-((5-(benzhydrylcarbamoyl)-4-hydroxypyrimidine-2-carboxamido)methyl)cyclopropanecarboxylate]	35.6
CCOC(=O)C(C)(O)CNC(=O)c1ncc(C(=O)NC(c2ccccc2)c2ccccc2)c(O)n1 (stereo not drawn) [Ex. 4, ethyl 3-(5-(benzhydrylcarbamoyl)-4-hydroxypyrimidine-2-carboxamido)-2-hydroxy-2-methylpropanoate]	871
CCOC(=O)[C@H](O)CNC(=O)c1ncc(C(=O)NC(c2ccccc2)c2ccccc2)c(O)n1 [Ex. 5, (R)-ethyl 3-(5-(benzhydrylcarbamoyl)-4-hydroxypyrimidine-2-carboxamido)-2-hydroxypropanoate]	46.4
CC(=O)OCOC(=O)CCNC(=O)c1ncc(C(=O)NC(c2ccccc2)c2ccccc2)c(O)n1 [Ex. 7, Acetoxymethyl 3-(5-(benzhydrylcarbamoyl)-4-hydroxypyrimidine-2-carboxamido)propanoate]	3.11
CC(C)OC(=O)OCOC(=O)CCNC(=O)c1ncc(C(=O)NC(c2ccccc2)c2ccccc2)c(O)n1 [Ex. 8, ((isopropoxycarbonyl)oxy)methyl 3-(5-(benzhydrylcarbamoyl)-4-hydroxypyrimidine-2-carboxamido)propanoate]	2.81
CCOC(=O)OC(C)OC(=O)CCNC(=O)c1ncc(C(=O)NC(c2ccccc2)c2ccccc2)c(O)n1 (stereo not drawn) [Ex. 9, 1-((ethoxycarbonyl)oxy)ethyl 3-(5-(benzhydrylcarbamoyl)-4-hydroxypyrimidine-2-carboxamido)propanoate]	6.67
CC(C)OC(=O)OC(C)OC(=O)CCNC(=O)c1ncc(C(=O)NC(c2ccccc2)c2ccccc2)c(O)n1 (stereo not drawn) [Ex. 10, 1-((isopropoxycarbonyl)oxy)ethyl 3-(5-(benzhydrylcarbamoyl)-4-hydroxypyrimidine-2-carboxamido)propanoate]	37.2
CC(OC(=O)CCNC(=O)c1ncc(C(=O)NC(c2ccccc2)c2ccccc2)c(O)n1)OC(=O)OC1CCCCC1 (stereo not drawn) [Ex. 11, 1-(((cyclohexyloxy)carbonyl)oxy)ethyl 3-(5-(benzhydrylcarbamoyl)-4-hydroxypyrimidine-2-carboxamido)propanoate]	42.1
CCOC(=O)OCOC(=O)CCNC(=O)c1ncc(C(=O)NC(c2ccccc2)c2ccccc2)c(O)n1 [Ex. 12, ((ethoxycarbonyl)oxy)methyl 3-(5-(benzhydrylcarbamoyl)-4-hydroxypyrimidine-2-carboxamido)propanoate]	2.46
CN(C)C(=O)COC(=O)CCNC(=O)c1ncc(C(=O)NC(c2ccccc2)c2ccccc2)c(O)n1 [Ex. 13, 2-(Dimethylamino)-2-oxoethyl 3-(5-(benzhydrylcarbamoyl)-4-hydroxypyrimidine-2-carboxamido)propanoate]	159
O=C1CCN(C(=O)c2ncc(C(=O)NC(c3ccccc3)c3ccccc3)c(O)n2)CO1 [Ex. 14, N-Benzhydryl-4-hydroxy-2-(6-oxo-1,3-oxazinane-3-carbonyl)pyrimidine-5-carboxamide]	11.2
O=C(CNC(=O)c1ncc(C(=O)NC(c2ccccc2)c2ccccc2)c(O)n1)Oc1ccc2c(c1)CCC2 [Ex. 15, 2,3-Dihydro-1H-inden-5-yl 2-(5-(benzhydrylcarbamoyl)-4-hydroxypyrimidine-2-carboxamido)acetate]	11.2
CN(C)C(=O)COC(=O)CNC(=O)c1ncc(C(=O)NC(c2ccccc2)c2ccccc2)c(O)n1 [Ex. 16, 2-(dimethylamino)-2-oxoethyl 2-(5-(benzhydrylcarbamoyl)-4-hydroxypyrimidine-2-carboxamido)acetate]	105
O=C1CN(C(=O)c2ncc(C(=O)NC(c3ccccc3)c3ccccc3)c(O)n2)CO1 [Ex. 17, N-Benzhydryl-4-hydroxy-2-(5-oxooxazolidine-3-carbonyl)pyrimidine-5-carboxamide]	15.1
CC(C)OC(=O)OC(C)OC(=O)CNC(=O)c1ncc(C(=O)NC(c2ccccc2)c2ccccc2)c(O)n1 (stereo not drawn) [Ex. 18, 1-((isopropoxycarbonyl)oxy)ethyl 2-(5-(benzhydrylcarbamoyl)-4-hydroxypyrimidine-2-carboxamido)acetate]	43.9
CCOC(=O)OC(C)OC(=O)CNC(=O)c1ncc(C(=O)NC(c2ccccc2)c2ccccc2)c(O)n1 (stereo not drawn) [Ex. 19, 1-((ethoxycarbonyl)oxy)ethyl 2-(5-(benzhydrylcarbamoyl)-4-hydroxypyrimidine-2-carboxamido)acetate]	32.2
CC(C)OC(=O)OCOC(=O)CNC(=O)c1ncc(C(=O)NC(c2ccccc2)c2ccccc2)c(O)n1 [Ex. 20, ((Isopropoxycarbonyl)oxy)methyl 2-(5-(benzhydrylcarbamoyl)-4-hydroxypyrimidine-2-carboxamido)acetate]	41
CC(C)C(=O)OCOC(=O)CNC(=O)c1ncc(C(=O)NC(c2ccccc2)c2ccccc2)c(O)n1 [Ex. 21, (2-(5-(benzhydrylcarbamoyl)-4-hydroxypyrimidine-2-carboxamido)acetoxy)methyl isobutyrate]	35
CCOC(=O)OCOC(=O)CNC(=O)c1ncc(C(=O)NC(c2ccccc2)c2ccccc2)c(O)n1 [Ex. 22]	14.7
CC(OC(=O)[C@H](O)CNC(=O)c1ncc(C(=O)NC(c2ccccc2)c2ccccc2)c(O)n1)C(=O)OCc1ccccc1 (stereo partly drawn) [Ex. 23, (2R)-1-(Benzyloxy)-1-oxopropan-2-yl 3-(5-(benzhydrylcarbamoyl)-4-hydroxypyrimidine-2-carboxamido)-2-hydroxypropanoate]	11.2
CCOC(=O)C(OC(=O)[C@H](O)CNC(=O)c1ncc(C(=O)NC(c2ccccc2)c2ccccc2)c(O)n1)c1ccccc1 (stereo partly drawn) [Ex. 24, (2R)-2-ethoxy-2-oxo-1-phenylethyl 3-(5-(benzhydrylcarbamoyl)-4-hydroxypyrimidine-2-carboxamido)-2-hydroxypropanoate]	326
O=C(NC[C@@H](O)C(=O)OC1CCCCC1O)c1ncc(C(=O)NC(c2ccccc2)c2ccccc2)c(O)n1 (stereo partly drawn) [Ex. 25, (2R)-2-Hydroxycyclohexyl 3-(5-(benzhydrylcarbamoyl)-4-hydroxypyrimidine-2-carboxamido)-2-hydroxypropanoate]	182
CC(C)OC(=O)COC(=O)[C@H]1C[C@H](NC(=O)c2ncc(C(=O)NC(c3ccccc3)c3ccccc3)c(O)n2)C1 [Ex. 29, (1R,3R)-2-isopropoxy-2-oxoethyl 3-(5-(benzhydrylcarbamoyl)-4-hydroxypyrimidine-2-carboxamido)cyclobutanecarboxylate]	171
CC(C)OC(=O)CCNC(=O)c1ncc(C(=O)NC(c2ccccc2)c2ccccc2)c(O)n1 [Example 6, Isopropyl 3-(5-(benzhydrylcarbamoyl)-4-hydroxypyrimidine-2-carboxamido)propanoate]	15.9
O=C(CCNC(=O)c1ncc(C(=O)NC(c2ccccc2)c2ccccc2)c(O)n1)OCc1ccccc1 [Example 28]	24.3
